Read-outs that look alike come from different tables or passages of the source.

The nature of test [1]: Pooled analysis of double-blind, placebo-controlled, non-diabetic studies of at least 6 months in subjects with metabolic syndrome at baseline. Type of test: in vivo, human. To be noted: change from baseline to latest assessment after month 6 up to month 12; compared to placebo. An excerpt: (§1) The benefits of sibutramine therapy can be extended to subjects with metabolic syndrome. The treatment effect of sibutramine on subjects that had metabolic syndrome at study entry in the STORM trial and by a pooled analysis of double-blind, placebo-controlled, non-diabetic studies of at least 6 months duration were studied. Subjects were identified who had increased abdominal obesity (waist circumference), decreased HDL cholesterol, and elevated triglycerides (TG) at baseline, and who also completed at least 6 months of sibutramine treatment (pooled analysis subjects: 266 sibutramine, 134 placebo; STORM: 80 sibutramine). Since all subjects in the STORM trial received sibutramine for the first 6 months of the study, only subjects subsequently randomized to receive sibutramine for a longer duration were included. The analyses for each variable were based on change from baseline to latest assessment after month 6, up to and including month 12.

Test [2] is described as follows: STORM trial, subjects that had metabolic syndrome at study entry. The note with it: change from baseline to latest assessment after month 6 up to month 12. It counts as in vivo, human.
Source text: as §1

For test [3] the following is noted: cited from earlier work.
The conditions of test [4]: compared to placebo; cited from earlier work.
The mark [5] stands for this setting: subjects who lost and maintained weight, compared to baseline values of all subjects.

With `CC(C)CC(N(C)C)C1(c2ccc(Cl)cc2)CCC1` (centres unmarked) [sibutramine, N,N-dimethyl-1-[1-(4-chlorophenyl)cyclobutyl]-3-methylbutylamine], in test [1], the HDL result was “clinically and statistically significant improvements”; the TG result was “clinically and statistically significant improvements”; the waist circumference result was “clinically and statistically significant improvements”; the weight loss result was “clinically and statistically significant improvements”. In test [2], the HDL result is on record as “favorable changes”, the TG entry is on record as “favorable changes”, the waist circumference result is recorded as “favorable changes” and the weight loss result is listed as “favorable changes”. Also, the “subjects who maintained at least 80% of their month six weight loss” value in test [3] (at two years, subjects who completed the trial, placebo 16%) is 43%. In addition, the “mean fasting insulin levels” value in test [3] (at two years) is reported as “reduced”. Also, in test [3] (end of two years of treatment, placebo 21%), the “subjects who maintained ≧10% weight reduction” value was 46%. Also, the “subjects who maintained ≧5% weight reduction” value in test [3] (end of two years of treatment, placebo 44%) is listed as 69%. The mean weight loss in test [3] (first six months of sibutramine treatment) is 26 lbs. Also, the “subjects who achieved a ≧5% weight reduction” value in test [3] (of the 499 subjects who completed the first six months, sibutramine with reduced calorie diet and increased physical activity) is 94%. Besides, in test [3] (setting [5]), the HDL cholesterol result was “clinically and statistically significant improvements”; the triglycerides entry is “clinically and statistically significant improvements”; the waist circumference entry is “clinically and statistically significant improvements”. The impaired fasting glucose entry in test [3] (subjects who lost and maintained weight) is “significantly changed”. Moreover, in test [4], the HDL cholesterol entry was “significant improvements”, the “fasting blood glucose levels” value is recorded as “not significantly changed”, the insulin levels entry is listed as “significant improvements” and the triglyceride levels entry is on record as “significant improvements”. Besides, in test [4], the “waist circumference (a measure for abdominal obesity)” value is “significant improvements”.

The values are drawn from patent US20080161407A1, “METHODS FOR TREATING METABOLIC SYNDROME” (Abbott Laboratories, priority 2003, published 2008).
